Experimental data taken from the NIST ThermoML archive (doi:10.1021/je060271a).

Conditions: 323.15 K, Liquid, Vibrating tube method

CCCCCCCC(=O)OCC(COC(=O)CCCCCCC)(COC(=O)CCCCCCC)COC(=O)CCCCCCC [pentaerythritol tetraoctanoate]
Conditions | mass density [kg/m3]
26616 kPa | 957.5
26661 kPa | 957.4
26699 kPa | 957.6
26737 kPa | 957.5
26782 kPa | 957.5
26820 kPa | 957.5
26866 kPa | 957.6
26904 kPa | 957.6
26944 kPa | 957.7
26985 kPa | 957.7
27024 kPa | 957.7
27070 kPa | 957.8
27109 kPa | 957.9
27407 kPa | 957.9
27548 kPa | 957.8
27601 kPa | 958
27639 kPa | 958.1
27665 kPa | 958.1
27687 kPa | 958.2
27713 kPa | 958.1
27735 kPa | 958.1
27761 kPa | 958.2
27784 kPa | 958.1
27806 kPa | 958.3
27832 kPa | 958.2
27854 kPa | 958.3
27877 kPa | 958.2
27899 kPa | 958.2
27926 kPa | 958.2
27943 kPa | 958.3
27970 kPa | 958.3
28091 kPa | 958.4
28114 kPa | 958.4
28142 kPa | 958.4
28164 kPa | 958.3
28188 kPa | 958.3
28216 kPa | 958.4
28238 kPa | 958.4
28262 kPa | 958.4
28284 kPa | 958.5
28312 kPa | 958.6
28336 kPa | 958.5
28358 kPa | 958.6
28386 kPa | 958.5
28410 kPa | 958.5
28434 kPa | 958.4
28461 kPa | 958.5
28484 kPa | 958.5
28508 kPa | 958.6
28531 kPa | 958.6
28559 kPa | 958.6
28583 kPa | 958.6
28607 kPa | 958.7
28635 kPa | 958.6
28658 kPa | 958.7
28687 kPa | 958.9
28711 kPa | 958.7
28734 kPa | 958.8
28758 kPa | 958.6
28787 kPa | 958.8
28812 kPa | 958.8
28836 kPa | 958.8
28860 kPa | 958.9
28889 kPa | 958.7
28913 kPa | 958.9
28937 kPa | 958.8
28966 kPa | 958.9
28990 kPa | 958.9
29019 kPa | 958.9
29043 kPa | 958.8
29068 kPa | 958.9
29098 kPa | 958.9
29122 kPa | 958.9
29148 kPa | 958.9
29173 kPa | 959.1
29198 kPa | 959
29218 kPa | 959
29248 kPa | 959
29273 kPa | 959
29302 kPa | 959.1
29333 kPa | 959.1
29357 kPa | 959.1
29383 kPa | 959.1
29412 kPa | 959.1
29438 kPa | 959.2
29462 kPa | 959.2
29494 kPa | 959.2
29520 kPa | 959.1
29545 kPa | 959.2
29571 kPa | 959.2
29601 kPa | 959.1
29627 kPa | 959.3
29652 kPa | 959.2
29682 kPa | 959.4
29708 kPa | 959.2
29733 kPa | 959.3
29764 kPa | 959.3
29790 kPa | 959.3
29816 kPa | 959.3
29847 kPa | 959.3
29873 kPa | 959.4
29898 kPa | 959.4
29924 kPa | 959.4
29956 kPa | 959.4
29982 kPa | 959.4
30013 kPa | 959.4
30040 kPa | 959.4
30060 kPa | 959.5
30087 kPa | 959.5
30118 kPa | 959.5
30150 kPa | 959.6
30181 kPa | 959.6
30209 kPa | 959.5
30235 kPa | 959.6
30267 kPa | 959.6
30294 kPa | 959.6
30321 kPa | 959.6
30347 kPa | 959.6
30380 kPa | 959.7
30407 kPa | 959.7
30434 kPa | 959.6
30466 kPa | 959.7
30493 kPa | 959.7
30521 kPa | 959.7
30553 kPa | 959.8
30581 kPa | 959.6
30608 kPa | 959.8
30635 kPa | 959.8
30668 kPa | 959.8
30696 kPa | 959.8
30728 kPa | 959.8
30756 kPa | 959.9
30778 kPa | 959.9
30806 kPa | 959.9
30834 kPa | 960
30862 kPa | 959.9
30906 kPa | 960
30934 kPa | 959.8
30962 kPa | 959.9
30991 kPa | 960
31025 kPa | 960
31053 kPa | 959.9
31086 kPa | 960
31115 kPa | 960
31143 kPa | 959.9
31171 kPa | 960.1
31205 kPa | 960.1
31233 kPa | 960.2
